These results are taken from patent publication US5885815A, “Candida isoleucyl-tRNA synthetase proteins, nucleic acids and strains comprising same” (priority 1996, dated 1999).

Series [1] deals with T1, Candida albicans isoleucyl-tRNA synthetase, N-terminal GST-fusion protein (GST-IleRS) encoded by pQB83CAIRS-1, produced in S. cerevisiae, SEQ ID NO:2 (Candida albicans, UniProt Q59RI1, S1065L/S390L).
T1 construct: thrombin-cleavable), pQB83CAIRS-1, expressed in S. cerevisiae QBY3; CTG codons 390 and 1065 read as Leu by host
T1 sequence (Q59RI1 whole entry S390L/N691S/E755D/I1040V/S1065L, the tested form may be a part): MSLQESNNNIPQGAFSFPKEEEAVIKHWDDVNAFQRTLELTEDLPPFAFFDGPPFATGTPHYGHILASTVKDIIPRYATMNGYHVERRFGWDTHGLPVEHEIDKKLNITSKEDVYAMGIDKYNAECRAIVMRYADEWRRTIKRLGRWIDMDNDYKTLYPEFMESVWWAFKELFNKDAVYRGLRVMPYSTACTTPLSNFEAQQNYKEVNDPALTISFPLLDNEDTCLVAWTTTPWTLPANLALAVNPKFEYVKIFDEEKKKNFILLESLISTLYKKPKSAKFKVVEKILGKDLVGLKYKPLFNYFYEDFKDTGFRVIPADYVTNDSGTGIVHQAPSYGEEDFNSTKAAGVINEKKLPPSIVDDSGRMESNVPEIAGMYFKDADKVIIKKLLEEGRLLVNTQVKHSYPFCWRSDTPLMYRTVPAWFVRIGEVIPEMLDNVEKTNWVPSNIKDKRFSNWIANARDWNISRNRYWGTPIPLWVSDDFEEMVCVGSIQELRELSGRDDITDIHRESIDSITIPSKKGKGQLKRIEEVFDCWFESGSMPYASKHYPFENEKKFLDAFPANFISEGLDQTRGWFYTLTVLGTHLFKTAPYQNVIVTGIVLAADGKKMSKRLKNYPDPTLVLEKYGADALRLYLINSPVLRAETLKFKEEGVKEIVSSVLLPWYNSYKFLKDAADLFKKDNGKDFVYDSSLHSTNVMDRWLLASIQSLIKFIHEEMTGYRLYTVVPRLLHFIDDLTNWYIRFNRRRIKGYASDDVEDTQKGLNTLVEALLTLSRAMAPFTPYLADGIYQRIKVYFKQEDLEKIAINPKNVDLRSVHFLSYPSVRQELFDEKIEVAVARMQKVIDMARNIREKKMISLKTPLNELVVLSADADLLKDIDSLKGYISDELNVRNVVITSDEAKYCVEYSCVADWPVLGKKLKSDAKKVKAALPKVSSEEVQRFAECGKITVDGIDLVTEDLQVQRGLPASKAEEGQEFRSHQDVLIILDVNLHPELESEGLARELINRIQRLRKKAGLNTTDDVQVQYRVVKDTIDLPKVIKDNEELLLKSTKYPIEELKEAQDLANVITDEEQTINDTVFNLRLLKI
As to the kind of experiment: Aminoacylation (charging) assay for Km determination, purified GST-IleRS fusion. The format is biochemical. The note with it: isoleucine varied; 1.09 nM active enzyme; crude yeast tRNA. Here is the method:
(§1) The purified recombinant GST-fusion protein and the product after thrombin cleavage of the GST-fusion protein were tested for their charging activities. Charging assays were based on the procedure of Shepard et al. (Proc. Natl. Acad. Sci. USA 89:9964-68 (1992)). Unless otherwise stated, a typical 50 μl reaction was carried out at 25° C. and contained 4 mM ATP, 20 μM of [^3 H]isoleucine, 90 μM crude tRNA from E. coli (Sigma) or brewer's yeast (Boehringer Mannheim), 10 μM KF, 50 mM HEPES, pH 7.5, 10 mM MgCl2, 10 mM DTT or β-mercaptoethanol and 30 mM NH4 Cl. Purified enzyme was diluted in 100 mM HEPES, pH 7.5, 20 mM DTT and 0.1 mg/ml BSA.
(§2) Reactions were started by the addition of enzyme to the reaction mixture preincubated at 25° C. At various time intervals, 10 μl of the reaction mix was spotted on 3MM Whatman filter circles which were then immersed in ice cold 5% TCA. After three washes in ice cold 5% TCA (at least 15 minutes each), the filters were rinsed once with cold ethanol, once with ether, and air dried. The radioactivity was quantitated by counting the filters in a table top scintillation counter (Packard) in the presence of scintillation fluid (Betafluor; National Diagnostics).
(§3) For determination of Km, various concentrations of one substrate (ATP, amino acid, or tRNA) were used while the other two substrates were kept at saturating concentrations. To test the effect of temperature, the reactions were incubated at 25°, 30°, 37° and 42° C. The Bradford assay was used for determination of total protein. The proportion of active enzyme was calculated by monitoring the formation of the amino acid-adenylate:enzyme complex using a nitrocellulose filter binding assay in the presence of various dilutions of enzyme preparation. A 50 μl reaction contained 1 mM ATP, 1 unit of pyrophosphatase, 50 mM Tris-HCl, pH 5.8, 10 mM MgCl2, 30 mM KCl, 20 mM DTT, 40 μM of radioactively labeled amino acid, and diluted enzyme. […]

The subject of series [2] is CC[C@H](C)[C@H](N)C(=O)O. The description is as above. The format is biochemical, Candida albicans. The note with it: other: crude yeast tRNA, 2 to 32 μM [3H]isoleucine, 25° C., spread printed in b267: ±4.8 μM. Here is the method:
as §1, §2, §3

Usually Vmax stands for the top rate of the reaction or transport when substrate is in excess. In the case of `CC[C@H](C)[C@H](N)C(=O)O` [isoleucine], in series [1], the Vmax is 4 ± 0.5 nM/s and the kcat turned out to be 3.7±0.5 per sec.
For orientation: Km means the concentration of substrate that gives half-maximal velocity. As to “Candida albicans isoleucyl-tRNA synthetase, N-terminal GST-fusion protein (GST-IleRS) encoded by pQB83CAIRS-1, produced in S. cerevisiae, SEQ ID NO:2 (Candida albicans SC5314; S1065L/S390L)”, in series [2], the Km was 17 µM.
